# Key:
# E.coli 51A226 = assay: in vitro minimum inhibitory concentration (MIC) method of Ericsson and Sherris; type: cell-based; conditions: Escherichia coli; E.coli 51A226, Gram-negative
# Excerpt: (§1) The oleandomycin compounds of the present invention are effective in inhibiting the growth of microorganisms, especially Gram-positive microorganisms. That is, the high activity against Gram-positive organisms in general shown by these compounds can be contrasted in some respects with the lower activity show against certain especially virulent and well known Gram-negative organisms. The following table illustrates the in vitro antibiotic spectrum of the compound of the instant invention. The tests were run according to the "minimum inhibitory concentration" (MIC) method of Ericsson and Sherris [H. M. Ericsson and J. C. Sherris, Acta. Pathol. Microbiol. Scand. Suppl., 217B, 64 (1971)].
# Klebsiella pn. 53A009 = assay: as above; type: cell-based; conditions: Klebsiella pn. 53A009, Gram-negative
# Excerpt: as §1
# Neisseriae Sicca 66C001 = assay: as above; type: cell-based; conditions: Neisseriae Sicca 66C001, Gram-negative
# Excerpt: as §1
# Salm.typhm. 58D009 = assay: as above; type: cell-based; conditions: Salm.typhm. 58D009, Gram-negative
# Excerpt: as §1
# Staph.aureus 01A005 = assay: as above; type: cell-based; conditions: Staphylococcus aureus; Staph.aureus 01A005, Gram-positive
# Excerpt: as §1
# Staph.aureus 01A400R = assay: as above; type: cell-based; conditions: Staphylococcus aureus, Gram-positive
# Excerpt: as §1
# Strep.py 02C203 = assay: as above; type: cell-based; conditions: Strep.py 02C203, Gram-positive
# Excerpt: as §1
# Staph. aureus 01A005 = assay: protection against in vivo infection in mice infected with Staph. aureus 01A005 (test procedure of Retsema); conditions: subcutaneous or oral administration to mice infected with Staph. aureus 01A005; compared with natural oleandomycin
# Protocol: The ability of some compounds of the present invention to protect against in vivo infections was determined by subcutaneous or oral administration to mice infected with Staph. aureus 01A005. Using the test procedure of Retsema [J. A. Retsema, et al., Antimicr.
Structure (SMILES),MIC (E.coli 51A226) [µg/mL],MIC (Klebsiella pn. 53A009) [µg/mL],MIC (Neisseriae Sicca 66C001) [µg/mL],MIC (Salm.typhm. 58D009) [µg/mL],MIC (Staph.aureus 01A005) [µg/mL],MIC (Staph.aureus 01A400R) [µg/mL],MIC (Strep.py 02C203) [µg/mL],protection against infection (Staph. aureus 01A005)
"CO[C@H]1C[C@H](O[C@H]2[C@H](C)[C@@H](O[C@@H]3O[C@H](C)C[C@H](N(C)C)[C@H]3O)[C@@H](C)C[C@@H](CCl)C(=O)[C@H](C)[C@@H](O)[C@@H](C)[C@@H](C)OC(=O)[C@@H]2C)O[C@@H](C)[C@@H]1OC(C)=O [Example 13, 8,8a-Deoxy-8-chloromethyl-4'-acetyloleandomycin]",200,> 200,≤ 0.1,> 200,3.12,50,1.56,protection against infection which was comparable to natural oleandomycin
"CO[C@H]1C[C@H](O[C@H]2[C@H](C)[C@@H](O[C@@H]3O[C@H](C)C[C@H](N(C)C)[C@H]3OC(C)=O)[C@@H](C)C[C@@H](CO)C(=O)[C@H](C)[C@@H](O)[C@@H](C)[C@@H](C)OC(=O)[C@@H]2C)O[C@@H](C)[C@@H]1O [Example 2, 8,8a-Deoxy-8-hydroxymethyl-2'-acetyloleandomycin]",> 200,> 200,0.39,> 200,6.25,12.5,1.56,protection against infection which was comparable to natural oleandomycin
"CO[C@H]1C[C@H](O[C@H]2[C@H](C)[C@@H](O[C@@H]3O[C@H](C)C[C@H](N(C)C)[C@H]3O)[C@@H](C)C[C@@H](CNC(C)=O)C(=O)[C@H](C)[C@@H](O)[C@@H](C)[C@@H](C)OC(=O)[C@@H]2C)O[C@@H](C)[C@@H]1OC(C)=O [Example 19, 8,8a-Deoxy-8-(N-acetyl)aminomethyl-4""-acetyloleandomycin]",–,–,–,–,–,–,–,protection against infection which was comparable to natural oleandomycin
"CO[C@H]1C[C@H](O[C@H]2[C@H](C)[C@@H](O[C@@H]3O[C@H](C)C[C@H](N(C)C)[C@H]3O)[C@@H](C)C[C@@H](CN=[N+]=[N-])C(=O)[C@H](C)[C@@H](O)[C@@H](C)[C@@H](C)OC(=O)[C@@H]2C)O[C@@H](C)[C@@H]1OC(C)=O [Example 9, 8,8a-Deoxy8-azidomethyl-4""-acetyloleandomycin]",> 200,> 200,0.2,> 200,3.1,12.5,3.1,protection against infection which was comparable to natural oleandomycin
"CO[C@H]1C[C@H](O[C@H]2[C@H](C)[C@@H](O[C@@H]3O[C@H](C)C[C@H](N(C)C)[C@H]3O)[C@@H](C)C[C@@H](CN)C(=O)[C@H](C)[C@@H](O)[C@@H](C)[C@@H](C)OC(=O)[C@@H]2C)O[C@@H](C)[C@@H]1OC(C)=O [Example 11, 8,8a-Deoxy-8-aminomethyl-4""-acetyloleandomycin]",> 200,> 200,≤ 0.1,> 200,6.25,25,50,–
"CO[C@H]1C[C@H](O[C@H]2[C@H](C)[C@@H](O[C@@H]3O[C@H](C)C[C@H](N(C)C)[C@H]3O)[C@@H](C)C[C@@H](Cn3ccnc3)C(=O)[C@H](C)[C@@H](O)[C@@H](C)[C@@H](C)OC(=O)[C@@H]2C)O[C@@H](C)[C@@H]1OC(C)=O [Example 24, 8,8a-deoxy-8-(imidazol-1-yl)methyl-4""-acetyloleandomycin]",> 200,> 200,≤ 0.1,> 200,0.39,6.25,–,protection against infection which was comparable to natural oleandomycin
"CO[C@H]1C[C@H](O[C@H]2[C@H](C)[C@@H](O[C@@H]3O[C@H](C)C[C@H](N(C)C)[C@H]3OC(C)=O)[C@@H](C)C[C@@H](COS(=O)(=O)c3ccc(C)cc3)C(=O)[C@H](C)[C@@H](O)[C@@H](C)[C@@H](C)OC(=O)[C@@H]2C)O[C@@H](C)[C@@H]1O [Example 5, 8,8a-Deoxy-8-tosyloxymethyl-2'-acetyloleandomycin]",> 200,> 200,3.12,> 200,100,> 200,3.12,–
"CO[C@H]1C[C@H](O[C@H]2[C@H](C)[C@@H](O[C@@H]3O[C@H](C)C[C@H](N(C)C)[C@H]3O)[C@@H](C)C[C@@H](CN(C)C)C(=O)[C@H](C)[C@@H](O)[C@@H](C)[C@@H](C)OC(=O)[C@@H]2C)O[C@@H](C)[C@@H]1OC(C)=O [Example 14, 8,8a-Deoxy-8-dimethylaminomethyl-4""-acetyloleandomycin]",> 200,> 200,1.56,> 200,25,50,50,–

# Source: patent publication US4178436A, “Semi-synthetic oleandomycin derivatives-C8 modifications” (Pfizer Inc., priority 1978, dated 1979)
